Reference: PMC5612656, “In vitro and in vivo effects of 2,4 diaminoquinazoline inhibitors of the decapping scavenger enzyme DcpS: Context-specific modulation of SMN transcript levels” (PLoS ONE, 2017)

Tests used:
[1] = tested on: firefly luciferase driven by the SMN2 promoter and SMN2 splicing cassette; test: SMN2 reporter gene assay, firefly luciferase; type: cell-based; conditions: 24 hrs
Protocol: (§1) The SMN2 reporter cell line was cultured in high-glucose DMEM supplemented with 10% (v/v) fetal bovine serum (FBS) and 1X Penicillin/Streptomycin. Reporter cells media was supplemented with hygromycin during maintenance. All cells were maintained at 37°C and […]. After seeding in 96-well white tissue culture plates at 25,000 per well, cells were incubated overnight before being exposed to different doses of compounds or DMSO for 24 hrs. The final DMSO concentration was kept constant at 0.1% (v/v). Firefly and renilla luciferase expression were assayed with DualGlo (Promega E2920) and measured on a PHERAstar FS microplate reader (BMG Labtech). Relative light units are normalized to DMSO control and expressed as a percentage.

[2] = tested on: Renilla luciferase driven by the CMV promoter; test: Reporter gene assay, CMV-driven Renilla luciferase; type: cell-based; conditions: 24 hrs
Protocol: as §1

N2a cells = test: RNA-Seq (polyA RNA) of N2a neuroblastoma cells; type: cell-based, mouse; conditions: 1 μM
Protocol: Cells were then pelleted and lysed in RLT and the RNA was purified according to the protocol for the Qiagen miRNeasy kit to separate and enrich small RNA and large (>200 nt) fractions separately. […] RNA quality was also validated using qPCR for DcpS responsive genes. RNA fractions were used for cDNA library preparation which was performed using Truseq mRNA v2 reagents or TailorMix miRNA reagents (RS-122-2101 Illumina, San Diego CA, USA and TM302 Seqmatic, Fremont CA, USA). Libraries were run on a Nextseq 500 (Illumina) using a paired-end run (2x75bp) generating ~60 million reads per library for the mRNA-seq and 1x75bp generating ~5 million reads per library for the miRNA-seq. Demultiplexing, alignment, and differential analysis for the mRNA-seq were performed as described below. For the miRNA alignment, briefly the sequences between 16 and 35 nucleotides with average phred score ≥ 30 were retained for analysis. The reads were first mapped to mouse miRNAs using Bowtie without allowing for mismatches. Instead of discarding the remaining reads, we explored the possibilities of RNA editing to include potential isomiRs. These reads were mapped to miRNAs that have at most 1 base mismatch, a substitution at the 5’ or 3’ ends, or have 1 or 2 extra bases at either ends. Although 1 base mismatch would include 1 base substitution/deletion/addition at the ends, we made sure that 1 base mismatch was inside the miRNA and that all categories were mutually exclusive. Reads mapping to protein coding exons and other small RNAs were removed prior to mapping to miRNAs. Reads that uniquely mapped to miRNAs were considered and were profiled as: 1) identical to miRNAs, 2) perfect match to miRNAs but are of shorter length (no more than 5 bases short), 3) mapping to miRNAs with 1 substitution, 1 or 2 extra bases at 3’ and 5’ ends and with those with at most 1 mismatch (occurring inside the sequence and not on ends), 4) mapping to the precursor miRNA. Thus, steps 2–4 constitute “IsomiRs”-alternative forms of the mature miRNAs. We merged the counts of reads identical to a miR and those mapping to isomeric forms as they are found to have identical/very similar functions. The unaligned reads were mapped to the mouse genome and an internally developed database of rRNAs from bacteria, fungi, plant and eukaryotes to detect presence of contaminants. For differential analysis of miRNAs, only those with counts of ≥5 in at least 1/3rd samples (treatment vs control) were considered for analysis. The counts were normalized and analyzed using EdgeR [19] packages in R-Bioconductor. The P-values were corrected by FDR for multiple testing and miRNAs with FDR ≤15% and |FC|>1.5 were considered to be differentially expressed.
The differentially regulated gene lists for both the spinal cord mRNA-seq and the N2a mRNA-seq results with a corrected P-value less than 0.05 were loaded into IPA and analyzed against the Ingenuity Knowledgebase, Ingenuity Expert Information, and with experimentally observed confidence.

Smn mRNA in NSC-34 cells = tested on: Smn mRNA in NSC-34 cells; design: method as in PMID 18205293; conditions: cited from earlier work
[3] = tested on: SMN protein in SMA patient fibroblasts; design: method as in PMID 18205293; conditions: cited from earlier work
SMA Δ7 mice = conditions: SMAΔ7 mice; cited from earlier work
[4] = cited from earlier work
[5] = tested on: SMN transcripts in SMA-derived lymphoblasts; test: SMN transcripts by ddPCR in SMA-derived lymphoblasts; type: cell-based, human; conditions: active DAQ-DcpSi vs 7-methyl analogues
2B/- SMA mice [6] = test: Survival and body weight study in 2B/- SMA mice; type: in vivo, mouse; conditions: b.i.d. i.p. P4-P20, RG3039 6 mg/kg, PF-06738066 10 mg/kg, P < 0.0001 Mantel-Cox or Gehan-Breslow-Wilcoxon
2B/- SMA mice [7] = test: Combined 55° negative geotaxis/climb test in 2B/- SMA mice; type: in vivo, mouse
[8] = tested on: Smn transcripts in spinal cord, skeletal muscle, liver; test: Smn transcripts in mouse tissues by ddPCR; type: in vivo
From the text: (§2) At P1, pups were counted.

Smn protein [9] = test: Smn protein in mouse tissues by Western blot; type: in vivo; conditions: 2B/- SMA mice
From the text: as §2

[10] = Plasma drug levels after P4-P16 dosing; conditions: FVB/N background, mouse, ip
From the text: Personnel conducting studies followed the approved standard operating procedures for daily monitoring, dosing, weaning and euthanasia according to the approved study protocol. […] Line maintenance was maintained by interbreeding of the congenic line and every 4th generation mice were outbred to wild type FBV/N mice (jax # 001800) to reduce the possibility of new mutations within the line. Smn 2B mice were internally developed and maintained in the DiDonato laboratory. To generate the SMA mice used in this study an intercross between Smn 2B/2B and Smn +/- mice was performed. This generated litters in which 50% of the offspring were control (2B/+) and 50% SMA (2B/-). The day of birth was considered to be P0. If pups were born after 3pm, the following day was considered P0. At P1, pups were counted. If greater than 10 pups to a cage, pups were randomly chosen and moved to another cage to increase litter size, culled to reduce litter size or genotyped at P1 and culled at P2 to reduce litter size to 10 or fewer pups. Thereafter, no culling of pups was performed for drug studies. Individual mice were genotyped from DNA obtained from tail snips by polymerase chain reaction (PCR). All mice were weaned at P21 and separated into male and female cages. […] For the PK single dose studies a single ip injection was used. […] Body weights were recorded daily in the AM and dosing volume was adjusted accordingly. […]

[11] = Single dose PK in adult FVB/N wild type mice
From the text: Personnel conducting studies followed the approved standard operating procedures for daily monitoring, dosing, weaning and euthanasia according to the approved study protocol. […] Line maintenance was maintained by interbreeding of the congenic line and every 4th generation mice were outbred to wild type FBV/N mice (jax # 001800) to reduce the possibility of new mutations within the line. Smn 2B mice were internally developed and maintained in the DiDonato laboratory. To generate the SMA mice used in this study an intercross between Smn 2B/2B and Smn +/- mice was performed. This generated litters in which 50% of the offspring were control (2B/+) and 50% SMA (2B/-). The day of birth was considered to be P0. If pups were born after 3pm, the following day was considered P0. At P1, pups were counted. If greater than 10 pups to a cage, pups were randomly chosen and moved to another cage to increase litter size, culled to reduce litter size or genotyped at P1 and culled at P2 to reduce litter size to 10 or fewer pups. Thereafter, no culling of pups was performed for drug studies. Individual mice were genotyped from DNA obtained from tail snips by polymerase chain reaction (PCR). All mice were weaned at P21 and separated into male and female cages. […] For the PK single dose studies a single ip injection was used. For survival studies drug level and tissue harvest mice from P4-P16 treatment, mice were treated twice daily (b.i.d.) via intraperitoneal (i.p.) injection starting on P4 and continuing until P20 or the sacrifice of the animals, whichever occurred sooner. The dosing interval was 12 hours ± 90 minutes. Body weights were recorded daily in the AM and dosing volume was adjusted accordingly. […] At P4, litters were randomized across treatment arms to uniformly control litter size and litter weight as appropriate. Litter size entry was a minimum of 6 and maximum of 10. Litters with average weights at P4 that were greater or less than two stand deviations below the average P4 litter weight of untreated litters were also excluded from study entry. All mice within a litter were dosed with only one test article or received no dose at all. Dosers/phenotypic testers were blinded to the test articles being administered. […] Mice meeting humane functional endpoints (30 percent loss of weight for two consecutive days and/or an inability to right within 1 minute or obvious state of distress) were immediately euthanized with CO2 followed by cervical dislocation as a secondary measure. […] Those not used for analyses were also euthanized using CO2 inhalation followed by cervical dislocation as a secondary measure.

[12] = Single dose PK in P13 2B/- SMA and 2B/+ littermate pups
From the text: Personnel conducting studies followed the approved standard operating procedures for daily monitoring, dosing, weaning and euthanasia according to the approved study protocol. […] Line maintenance was maintained by interbreeding of the congenic line and every 4th generation mice were outbred to wild type FBV/N mice (jax # 001800) to reduce the possibility of new mutations within the line. Smn 2B mice were internally developed and maintained in the DiDonato laboratory. To generate the SMA mice used in this study an intercross between Smn 2B/2B and Smn +/- mice was performed. This generated litters in which 50% of the offspring were control (2B/+) and 50% SMA (2B/-). The day of birth was considered to be P0. If pups were born after 3pm, the following day was considered P0. At P1, pups were counted. If greater than 10 pups to a cage, pups were randomly chosen and moved to another cage to increase litter size, culled to reduce litter size or genotyped at P1 and culled at P2 to reduce litter size to 10 or fewer pups. Thereafter, no culling of pups was performed for drug studies. Individual mice were genotyped from DNA obtained from tail snips by polymerase chain reaction (PCR). All mice were weaned at P21 and separated into male and female cages. […] For the PK single dose studies a single ip injection was used. For survival studies drug level and tissue harvest mice from P4-P16 treatment, mice were treated twice daily (b.i.d.) via intraperitoneal (i.p.) injection starting on P4 and continuing until P20 or the sacrifice of the animals, whichever occurred sooner. The dosing interval was 12 hours ± 90 minutes. Body weights were recorded daily in the AM and dosing volume was adjusted accordingly. […] At P4, litters were randomized across treatment arms to uniformly control litter size and litter weight as appropriate. Litter size entry was a minimum of 6 and maximum of 10. Litters with average weights at P4 that were greater or less than two stand deviations below the average P4 litter weight of untreated litters were also excluded from study entry. […]

SMN protein [13] = test: SMN protein by Western blot in SMA cells (fibroblasts, lymphoblasts, iPS-derived neural progenitor cells); type: cell-based, human; conditions: 24 hours to 7 days
Protocol: Lysates were incubated at 95°C for 5 minutes and cleared at 14,000 RPM for 15 minutes. Cleared lysates were quantified by BCA assay. A total of 5 μg of each lysate was mixed with NuPage LDS sample buffer with […] and loaded and separated on a NuPage 10% Bis-Tris gel. Proteins were transferred to 0.2 micron nitrocellulose using the BioRad Turbo Transfer system.

recombinant human DcpS = molecular target: T1, recombinant human DcpS (Homo sapiens, UniProt Q96C86); test: in vitro DcpS inhibition assay (m7GpppA-biotin substrate, ADP-biotin detection); type: biochemical; conditions: mean of two or more independent assays
T1 sequence (Q96C86 1-337): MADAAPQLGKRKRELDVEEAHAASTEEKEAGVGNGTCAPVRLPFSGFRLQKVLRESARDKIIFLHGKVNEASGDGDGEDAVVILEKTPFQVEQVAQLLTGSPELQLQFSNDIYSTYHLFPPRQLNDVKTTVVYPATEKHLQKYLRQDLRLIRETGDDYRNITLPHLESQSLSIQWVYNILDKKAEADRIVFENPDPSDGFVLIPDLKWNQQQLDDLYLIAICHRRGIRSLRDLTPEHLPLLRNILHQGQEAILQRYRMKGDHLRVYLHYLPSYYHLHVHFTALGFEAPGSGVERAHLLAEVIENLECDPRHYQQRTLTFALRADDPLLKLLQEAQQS
Protocol: Incubations were initiated by the addition of 50 nM m7GpppA-biotin substrate and proceeded for 45 min at room temperature before being terminated by the addition of 1 μM D156844 [11]. Production of ADP-biotin was quantitated by transferring 18 μl of the quenched reaction (or biotin-ADP standard) to a streptavidin-coated plate (Pierce), incubating for 2 hours then washing 3 times followed by detection using an anti-ADP mouse antibody (Bellbrook lab) and an HRP-conjugated Goat anti-mouse IgG (Invitrogen).

[14] = P16, Fisher's exact test P-value = 0.0708
[15] = adult FVB/N mice, 30 mg/kg i.p.

## Cc1cc(OCC2CCN(Cc3c(Cl)cccc3Cl)CC2)c2c(N)nc(N)nc2c1 [PF-06802336]
[1]
  effect on SMN2-driven firefly luciferase activity: no effect
[2]
  effect on CMV-driven Renilla luciferase activity: no effect
N2a cells; 24 hours
  genes down-regulated by compound (P < 0.05): 3 genes
  genes upregulated by compound (P < 0.05): 4 genes
N2a cells; 24 hours, 18,409 detectable genes
  genes differentially expressed compared to DMSO (P < 0.05): 7 genes

## Nc1nc(N)c2c(OCC3CCN(Cc4ccccc4F)CC3)cccc2n1 [D156844]
[2]
  effect on CMV-driven Renilla luciferase activity: strong effect
Smn mRNA in NSC-34 cells
  endogenous mouse Smn mRNA: elevated the endogenous mouse Smn mRNA
[3]
  SMN protein levels: raised SMN protein levels
  numbers of SMN-positive nuclear foci (gems): dramatically increased
SMA Δ7 mice
  SMN2 or SMNΔ7 transcript levels or SMN protein in CNS tissues: no statistically significant effect
  snRNP assembly: nor did it have any statistically significant effect
[4]
  physicochemical character (lipophilicity, basicity): highly lipophilic and dibasic

## N#Cc1cc(F)cc(OCc2cccc3nc(N)nc(N)c23)c1 [PF-06738066]
[5]
  changes in SMN transcripts: modest changes in SMN transcripts
[2]
  effect on CMV-driven Renilla luciferase activity: strong effect
2B/- SMA mice [6]
  effect on survival of SMA mice compared to vehicle-treated SMA mice: statistically significant beneficial effect on survival
2B/- SMA mice [7]; 2B/- SMA mice at P16, combined sexes
  simultaneous pass rate, 55° negative geotaxis and climb test: about 78%
2B/- SMA mice [7]; [14]
  improvement in ability to pass the combined assay over vehicle SMA mice: ~40%
  statistical significance of improvement over vehicle SMA mice in combined test: showed improvement over vehicle SMA mice that did not reach statistical significance
[8]; 2B/+ control mice
  Smn exons 7/8 in spinal cord: significant decrease
[8]; 2B/- SMA mice, P4-P16 BID i.p.
  Smn transcripts (exons 5/6, exons 7/8, SmnΔ7) in tissues: significant increases in Smn transcripts in all tissues
Smn protein [9]
  Smn protein levels in muscle: small but significant increase in muscle
  Smn protein levels in spinal cord: significant decrease in spinal cord
[10]
  concentration at 12 h: 184 ± 76 nM
[11]; FVB/N mice, 30mpk IP
  Cave,u Brain: 63 nM
  Cave,u CSF: 47 nM
  Cave,u Plasma: 173 nM
[11]; [15]
  brain penetration: moderate brain penetration
  free drug levels in brain and CSF lower than in plasma: approximately 2.5 fold
[12]; 2B/- SMA pups, P13, 10 mg/kg i.p.
  free drug levels in brain lower than in plasma: 3–4 fold
[12]; FVB/N background, mouse, brain, intraperitoneal, 10 mg/kg
  concentration at 12 h: ~7 nM
[12]; P13, 10 mg/kg i.p.
  drug exposures in SMA pups compared to healthy littermates: somewhat higher in SMA pups

## CCN1CCN(c2ccc3cc(-c4cn5cc(C)nc(C)c5n4)c(=O)oc3c2)C[C@@H]1C [SMN-C2]
SMN protein [13]
  SMN protein: positive SMN response
[1]
  effect on SMN2-driven firefly luciferase activity: strong positive effect
[2]
  effect on CMV-driven Renilla luciferase activity: no effect

## Cc1cc(COc2cc(F)cc(C#N)c2)c2c(N)nc(N)nc2c1 [PF-06832344]
Recombinant human DcpS
  IC50: > 10 µM

## CC(C)c1cc(C(=O)Nc2ccc(F)c(Cl)c2)no1 [LDN-75654]
[1]
  effect on SMN2-driven firefly luciferase activity: strong positive effect
[2]
  effect on CMV-driven Renilla luciferase activity: much weaker
